In US9340577B2, “HLA binding motifs and peptides and their uses” (priority 1992, dated 2016):
No end group written: not given here.

What was measured:
Experiment in all cases: biochemical
DR1 (DRB1*0101) = DR1 (DRB1*0101) (Homo sapiens, UniProt P01903+P01911, A100R/D57E/F55L/F60I/F76Y/I96L/L162R/M171V/P40L/Q125E/R42F/V115G/Y59C); assay type: binding
DR7 (DRB1*0701) = DR7 (DRB1*0701) (Homo sapiens, UniProt P01903+P01911, A100R/A102G/A103Q/D57E/D86V/E43K/F76Y/K127E/L162R/M171V/P40G/Q125H/Q99D/R33Q/R42Y/R54Q/S133A/S66F/T210M/V115G/Y107V/Y59L/Y89S); assay type: binding
DRB1*0405 = DRB1*0405 (Homo sapiens, UniProt P01903+P01911, A100R/A169T/D86S/F76Y/I96L/K127E/L162R/M171V/N62H/P40V/Q125Y/R42H/S133A/S149N/S66Y/V115G/V209L/W38E); assay type: binding
DRB1*0901 = DRB1*0901 (Homo sapiens, UniProt P01903+P01911, A100R/A103E/D57H/D86V/F55Y/F60I/F76Y/I96F/K127E/L162R/M171V/P40D/Q125H/Q99R/R33Q/R42F/S133A/S66N/T210M/V115G/W38K/Y107V/Y59G/Y89S); assay type: binding
DRB1*1201 = DRB1*1201 (Homo sapiens, UniProt P01903+P01911, A100R/A169T/D57E/D86V/F55L/H45Y/K41T/L162R/M171V/P40S/Q125H/Q178H/Q39Y/Q99D/R42G/S66L/T262R/V114A/V67L/W38E/Y59H/Y61H/Y89S); assay type: binding
DRB1*1501 = DRB1*1501 (Homo sapiens, UniProt P01903+P01911); assay type: binding
DRB4*0101 = DRB4*0101 (Homo sapiens, UniProt P01903+P13762, G164S); assay type: binding
DRB1*1101 = DRB1*1101 (Homo sapiens, UniProt P01903+P01911, A100R/A169T/A87E/I96F/K41T/L162R/M171V/P40S/Q125H/Q178H/Q39Y/Q99D/R42S/S66Y/T262R/V115G/W38E)
DRB5*0101 = DRB5*0101 (Homo sapiens, UniProt P01903+Q30154); details: Binding affinity DRB5 *0101
DR4w4 (DRB1*0401) = DR4w4 (DRB1*0401) (Homo sapiens, UniProt P01903+P01911, A100K/A169T/F76Y/I96L/K127E/L162R/M171V/N62H/P40V/Q125Y/R42H/S133A/S149N/S66Y/V115G/V209L/W38E); assay type: binding
DRB1*0802 = DRB1*0802 (Homo sapiens, UniProt P01903+P01911, A100R/A103L/A169T/F76Y/H45Y/I96F/K41T/L162R/M171V/P40S/Q125H/Q178H/Q39Y/Q99D/R218S/R42G/S66Y/V115G/W38E); assay type: binding
DRB1*1302 = DRB1*1302 (Homo sapiens, UniProt P01903+P01911, A100E/A169T/K41T/L162R/M171V/P40S/Q125H/Q178H/Q39Y/Q99D/R42S/S66N/T262R/V115G/W38E/Y61H); assay type: binding
Chain of DRB1*1302 (P01903 26-254 limits assumed, other chains not shown): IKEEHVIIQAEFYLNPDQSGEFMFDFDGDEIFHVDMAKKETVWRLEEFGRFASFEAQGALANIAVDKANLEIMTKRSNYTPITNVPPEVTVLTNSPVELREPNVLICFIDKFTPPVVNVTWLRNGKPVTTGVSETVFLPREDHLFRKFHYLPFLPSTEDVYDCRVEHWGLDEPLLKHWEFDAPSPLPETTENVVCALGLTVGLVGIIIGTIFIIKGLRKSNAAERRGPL

Chain of DRB1*1101 (P01903 26-254 limits assumed, other chains not shown): as above

Compound	IC50 (DR1 (DRB1*0101)) [µM]	IC50 (DR7 (DRB1*0701)) [µM]	IC50 (DRB1*0405) [µM]	IC50 (DRB1*0901) [µM]	IC50 (DRB1*1201) [µM]	IC50 (DRB1*1501) [µM]	IC50 (DRB4*0101) [µM]	IC50 (DRB1*1101; Binding affinity DRB1 *1101) [µM]	IC50 (DRB5*0101) [µM]	IC50 (DR4w4 (DRB1*0401)) [µM]	IC50 (DRB1*0802) [µM]	IC50 (DRB1*1302) [µM]	IC50 (DRB1*1101; […]) [µM]
PEWIDRLTVLQHSFN [Peptide 89.0070]	2.61	> 20	0.079	4.15	0.203	0.982	0.013	2.64	> 20	–	–	–	–
ESVFSSDEISFAGIV [Peptide 90.0195]	2.38	0.609	8.58	0.672	> 20	1.98	–	> 20	> 20	0.033	> 20	0.235	–
CWNYIDDNLRNALDG [Peptide 90.0041]	> 20	> 20	> 20	> 20	> 20	> 20	> 20	> 20	> 20	–	> 20	> 20	–
PRWLCAGALVLAGGF [Peptide 68.0083]	–	–	–	–	4.6	–	–	> 20	> 20	–	> 20	> 20	–
SLSLGFLFLLFFWLD [Peptide 68.0022]	–	> 20	–	> 20	1.22	–	> 20	–	> 20	–	> 20	–	> 20
IYIIEEDTCTMVTGK [Peptide 90.0204]	2.23	8.19	18.7	> 20	16.5	18.7	–	11.9	> 20	0.151	> 20	0.994	–
CC[C@H](C)[C@H](NC(=O)[C@@H](NC(=O)[C@H](Cc1c[nH]cn1)NC(=O)[C@@H](N)CC(C)C)C(C)C)C(=O)N[C@@H](CO)C(=O)N[C@@H](CC(N)=O)C(=O)N[C@@H](CC(=O)O)C(=O)N[C@H](C(=O)N[C@@H](CS)C(=O)N[C@@H](C)C(=O)N[C@@H](CCC(N)=O)C(=O)N[C@H](C(=O)N[C@@H](Cc1c[nH]cn1)C(=O)N1CCC[C@H]1C(=O)N[C@@H](CCC(N)=O)C(=O)O)C(C)C)C(C)C [Peptide 68.0077]	–	–	–	> 20	> 20	> 20	–	> 20	> 20	–	> 20	–	–
SEIYIIEETTCTLVA [Peptide 90.0250]	–	> 20	8.08	> 20	> 20	–	0.231	> 20	> 20	–	> 20	0.399	–
CC(C)C[C@H](NC(=O)[C@H](CCC(N)=O)NC(=O)[C@H](CC(=O)O)NC(=O)[C@H](CCC(=O)O)NC(=O)[C@H](CO)NC(=O)[C@H](CC(C)C)NC(=O)[C@@H]1CCCN1C(=O)[C@@H](NC(=O)[C@@H](N)[C@@H](C)O)C(C)C)C(=O)N[C@@H](CC(C)C)C(=O)N[C@@H](Cc1ccc(O)cc1)C(=O)N[C@@H](CC(C)C)C(=O)N1CCC[C@H]1C(=O)N[C@@H](Cc1ccccc1)C(=O)N[C@@H](CCCNC(=N)N)C(=O)O [Peptide 68.0147]	–	–	–	> 20	9.69	> 20	–	> 20	> 20	–	> 20	–	–
ELQMALKGLAQSKYN [Peptide 90.0005]	0.081	> 20	5.95	0.348	0.041	> 20	–	0.064	0.475	2.22	0.127	10	–
VSFLSALKLFLKGVP [Peptide 89.0053]	0.023	–	–	2.12	0.082	1.45	0.023	0.064	–	1.57	0.29	–	–
ITFLGALKSFLKGTP [Peptide 89.0034]	0.018	2.96	–	7.62	0.044	0.128	1.5	–	0.019	–	–	> 20	–
GVYYIKDGDTTYYVQ [Peptide 90.0216]	1.55	–	7.09	1.62	5.74	> 20	> 20	> 20	> 20	2.48	5.62	–	–
LNVLKTSNAKAAMLA [Peptide 89.0003]	0.033	0.02	2.38	0.197	0.531	–	0.509	0.198	0.768	0.0034	–	0.0089	–
MAIFGVNPTVAEGFK [Peptide 89.0081]	–	–	0.036	1.56	1.2	–	0.426	0.041	–	0.075	1.09	0.035	–
DPRWPYLHSRLVVFH [Peptide 89.0113]	–	0.09	6.1	5.4	5.93	–	0.098	5.14	–	0.138	19.8	0.013	–
IWEVHMENESIYCPD [Peptide 90.0237]	1.78	> 20	> 20	5.49	> 20	> 20	–	> 20	> 20	3.38	> 20	1.96	–
CC[C@H](C)[C@H](NC(=O)[C@H](CCCCN)NC(=O)[C@H](CCSC)NC(=O)[C@H](CC(=O)O)NC(=O)[C@H](CCCNC(=N)N)NC(=O)[C@H](CCC(=O)O)NC(=O)[C@H](CC(C)C)NC(=O)[C@H](CCCCN)NC(=O)[C@H](Cc1ccccc1)NC(=O)[C@@H](N)Cc1ccccc1)C(=O)N[C@@H](CC(N)=O)C(=O)N[C@@H](CS)C(=O)N[C@@H](CO)C(=O)NCC(=O)N[C@@H](CCCCN)C(=O)O [Peptide 68.0168]	–	> 20	–	> 20	6.94	> 20	–	–	–	–	–	–	–
CC[C@H](C)[C@H](NC(=O)[C@H](CO)NC(=O)[C@H](CO)NC(=O)[C@H](CC(=O)O)NC(=O)[C@H](C)NC(=O)[C@H](CC(N)=O)NC(=O)[C@@H](NC(=O)[C@H](Cc1ccc(O)cc1)NC(=O)[C@H](C)NC(=O)[C@@H](NC(=O)CNC(=O)[C@H](CCCNC(=N)N)NC(=O)[C@@H](N)CCC(=O)O)C(C)C)[C@@H](C)CC)C(=O)N[C@@H](CCC(=O)O)C(=O)NCC(=O)O [Peptide 68.0109]	–	> 20	–	> 20	> 20	> 20	–	> 20	–	–	> 20	–	–
CSCC[C@H](NC(=O)[C@H](CCC(=O)O)NC(=O)[C@H](CCC(N)=O)NC(=O)[C@@H]1CCCN1)C(=O)N[C@@H](CCCCN)C(=O)N[C@H](C(=O)N[C@@H](Cc1ccc(O)cc1)C(=O)N[C@@H](CO)C(=O)N[C@H](C(=O)N[C@@H](CO)C(=O)N[C@@H](Cc1ccccc1)C(=O)N[C@@H](CC(=O)O)C(=O)N[C@@H](CO)C(=O)N[C@@H](CC(C)C)C(=O)N[C@@H](Cc1ccccc1)C(=O)O)C(C)C)[C@@H](C)O [Peptide 68.0127]	–	–	–	–	5.35	–	–	> 20	–	–	> 20	> 20	–
LSHVKIPVVYRLVWD [Peptide 90.0020]	0.079	–	0.525	0.469	0.1	–	0.022	–	1.34	3.95	3.57	0.329	–
